Laboratory results published in ChEMBL document CHEMBL1148208, “Aureoverticillactam, a novel 22-atom macrocyclic lactam from the marine actinomycete Streptomyces aureoverticillatus” (J Nat Prod, 2004).

Legend:
Type in all cases: functional, cell-based
Jurkat = assay: Cytotoxicity against human Jurkat cells after 48 hrs
B16-F10 = assay: Cytotoxicity against mouse B16F10 cells after 48 hrs; conditions: B16-F10, 48 h
HT-29 = assay: Cytotoxicity against human HT29 cells after 48 hrs; conditions: HT-29, 48 h

CCC/C=C/CC1C/C=C/C=C(C)/C=C/C=C\C(O)CC(O)C(O)/C=C/C=C/C=C/C(=O)N1 (stereo not drawn) [AUREOVERTICILLACTAM]
EC50 (Jurkat): 2300 nM
EC50 (B16-F10): 2200 nM
EC50 (HT-29): 3600 nM
